# The source made the active and inactive calls.
# System: Echinochloa oryzicola
# Test: Post-emergence herbicidal activity against Echinochloa oryzicola assessed as bleaching of stem/leaf parts; note: test concentration or dose not given here
# Assay type: functional, organism-based
# Settings: not given
row,SMILES,Activity
1,CCN(C(=O)c1cn(C)nc1OCc1cccc(C(F)(F)F)c1)C1CCCCC1,Active
2,Cn1cc(C(=O)N2CCCC2)c(OCc2cccc(C(F)(F)F)c2)n1,Active
3,CNC(=O)c1cn(C)nc1OCc1cccc(C(F)(F)F)c1,Active

# System: Echinochloa oryzicola
# Test: Pre-emergence herbicidal activity against Echinochloa oryzicola at 500 g a.i/ha measured after 14 days
# Assay type: functional, organism-based
# Settings: not given
row,SMILES,Activity
1,CCN(C(=O)c1cn(C)nc1OCc1cccc(C(F)(F)F)c1)C1CCCCC1,inactive
2,Cn1cc(C(=O)N2CCCC2)c(OCc2cccc(C(F)(F)F)c2)n1,inactive
3,CNC(=O)c1cn(C)nc1OCc1cccc(C(F)(F)F)c1,inactive

# System: Pontederia vaginalis
# Test: Pre-emergence herbicidal activity against Monochoria vaginalis assessed as bleaching of stem/leaf parts
# Assay type: functional, organism-based
# Settings: not given
row,SMILES,Activity
1,CCN(C(=O)c1cn(C)nc1OCc1cccc(C(F)(F)F)c1)C1CCCCC1,Active
2,Cn1cc(C(=O)N2CCCC2)c(OCc2cccc(C(F)(F)F)c2)n1,Active
3,CNC(=O)c1cn(C)nc1OCc1cccc(C(F)(F)F)c1,Active

# System: Rotala indica
# Test: Pre-emergence herbicidal activity against Rotala indica at 500 g a.i/ha measured after 14 days
# Assay type: functional, organism-based
# Settings: not given
row,SMILES,Activity
1,CCN(C(=O)c1cn(C)nc1OCc1cccc(C(F)(F)F)c1)C1CCCCC1,inactive
2,Cn1cc(C(=O)N2CCCC2)c(OCc2cccc(C(F)(F)F)c2)n1,inactive
3,CNC(=O)c1cn(C)nc1OCc1cccc(C(F)(F)F)c1,inactive

# System: Rotala indica
# Test: Post-emergence herbicidal activity against Rotala indica assessed as bleaching of stem/leaf parts; note: test concentration or dose not given here
# Assay type: functional, organism-based
# Settings: not given
row,SMILES,Activity
1,CCN(C(=O)c1cn(C)nc1OCc1cccc(C(F)(F)F)c1)C1CCCCC1,Active
2,Cn1cc(C(=O)N2CCCC2)c(OCc2cccc(C(F)(F)F)c2)n1,Active
3,CNC(=O)c1cn(C)nc1OCc1cccc(C(F)(F)F)c1,Active

# System: Eleocharis acicularis
# Test: Pre-emergence herbicidal activity against Eleocharis acicularis at 500 g a.i/ha measured after 14 days
# Assay type: functional, organism-based
# Settings: not given
row,SMILES,Activity
1,CCN(C(=O)c1cn(C)nc1OCc1cccc(C(F)(F)F)c1)C1CCCCC1,inactive
2,Cn1cc(C(=O)N2CCCC2)c(OCc2cccc(C(F)(F)F)c2)n1,inactive
3,CNC(=O)c1cn(C)nc1OCc1cccc(C(F)(F)F)c1,inactive

# System: Cyperus difformis
# Test: Pre-emergence herbicidal activity against Cyperus difformis at 500 g a.i/ha measured after 14 days
# Assay type: functional, organism-based
# Settings: not given
row,SMILES,Activity
1,CCN(C(=O)c1cn(C)nc1OCc1cccc(C(F)(F)F)c1)C1CCCCC1,inactive
2,Cn1cc(C(=O)N2CCCC2)c(OCc2cccc(C(F)(F)F)c2)n1,inactive
3,CNC(=O)c1cn(C)nc1OCc1cccc(C(F)(F)F)c1,inactive

# System: Cyperus difformis
# Test: Pre-emergence herbicidal activity against Cyperus difformis assessed as bleaching of stem/leaf parts
# Assay type: functional, organism-based
# Settings: not given
row,SMILES,Activity
1,CCN(C(=O)c1cn(C)nc1OCc1cccc(C(F)(F)F)c1)C1CCCCC1,Active
2,Cn1cc(C(=O)N2CCCC2)c(OCc2cccc(C(F)(F)F)c2)n1,Active
3,CNC(=O)c1cn(C)nc1OCc1cccc(C(F)(F)F)c1,Active

# System: Schoenoplectiella juncoides
# Test: Post-emergence herbicidal activity against Schoenoplectiella juncoides assessed as bleaching of stem/leaf parts; note: test concentration or dose not given here
# Assay type: functional, organism-based
# Settings: not given
row,SMILES,Activity
1,CCN(C(=O)c1cn(C)nc1OCc1cccc(C(F)(F)F)c1)C1CCCCC1,Active
2,Cn1cc(C(=O)N2CCCC2)c(OCc2cccc(C(F)(F)F)c2)n1,Active
3,CNC(=O)c1cn(C)nc1OCc1cccc(C(F)(F)F)c1,Active

# System: Oryza sativa
# Test: Phytotoxicity against Oryza sativa cv. Koshihikari (rice) at 500 g a.i/ha measured after 14 days
# Assay type: organism-based
# Settings: in vivo, 336 h
row,SMILES,Activity
1,CCN(C(=O)c1cn(C)nc1OCc1cccc(C(F)(F)F)c1)C1CCCCC1,Non-toxic
2,Cn1cc(C(=O)N2CCCC2)c(OCc2cccc(C(F)(F)F)c2)n1,Non-toxic
3,CNC(=O)c1cn(C)nc1OCc1cccc(C(F)(F)F)c1,Non-toxic

# System: Eleocharis acicularis
# Test: Post-emergence herbicidal activity against Eleocharis acicularis assessed as bleaching of stem/leaf parts; note: test concentration or dose not given here
# Assay type: functional, organism-based
# Settings: not given
row,SMILES,Activity
1,CCN(C(=O)c1cn(C)nc1OCc1cccc(C(F)(F)F)c1)C1CCCCC1,Active
2,Cn1cc(C(=O)N2CCCC2)c(OCc2cccc(C(F)(F)F)c2)n1,Active
3,CNC(=O)c1cn(C)nc1OCc1cccc(C(F)(F)F)c1,Active

# System: Elatine triandra
# Test: Pre-emergence herbicidal activity against Elatine triandra assessed as bleaching of stem/leaf parts
# Assay type: functional, organism-based
# Settings: not given
row,SMILES,Activity
1,CCN(C(=O)c1cn(C)nc1OCc1cccc(C(F)(F)F)c1)C1CCCCC1,Active
2,Cn1cc(C(=O)N2CCCC2)c(OCc2cccc(C(F)(F)F)c2)n1,Active
3,CNC(=O)c1cn(C)nc1OCc1cccc(C(F)(F)F)c1,Active

# System: Eleocharis acicularis
# Test: Pre-emergence herbicidal activity against Eleocharis acicularis assessed as bleaching of stem/leaf parts
# Assay type: functional, organism-based
# Settings: not given
row,SMILES,Activity
1,CCN(C(=O)c1cn(C)nc1OCc1cccc(C(F)(F)F)c1)C1CCCCC1,Active
2,Cn1cc(C(=O)N2CCCC2)c(OCc2cccc(C(F)(F)F)c2)n1,Active
3,CNC(=O)c1cn(C)nc1OCc1cccc(C(F)(F)F)c1,Active

# System: Lindernia procumbens
# Test: Post-emergence herbicidal activity against Lindernia procumbens assessed as bleaching of stem/leaf parts; note: test concentration or dose not given here
# Assay type: functional, organism-based
# Settings: not given
row,SMILES,Activity
1,CCN(C(=O)c1cn(C)nc1OCc1cccc(C(F)(F)F)c1)C1CCCCC1,Active
2,Cn1cc(C(=O)N2CCCC2)c(OCc2cccc(C(F)(F)F)c2)n1,Active
3,CNC(=O)c1cn(C)nc1OCc1cccc(C(F)(F)F)c1,Active

# System: Elatine triandra
# Test: Post-emergence herbicidal activity against Elatine triandra assessed as bleaching of stem/leaf parts; note: test concentration or dose not given here
# Assay type: functional, organism-based
# Settings: not given
row,SMILES,Activity
1,CCN(C(=O)c1cn(C)nc1OCc1cccc(C(F)(F)F)c1)C1CCCCC1,Active
2,Cn1cc(C(=O)N2CCCC2)c(OCc2cccc(C(F)(F)F)c2)n1,Active
3,CNC(=O)c1cn(C)nc1OCc1cccc(C(F)(F)F)c1,Active

# System: Ammannia multiflora
# Test: Post-emergence herbicidal activity against Ammannia multiflora assessed as bleaching of stem/leaf parts; note: test concentration or dose not given here
# Assay type: functional, organism-based
# Settings: not given
row,SMILES,Activity
1,CCN(C(=O)c1cn(C)nc1OCc1cccc(C(F)(F)F)c1)C1CCCCC1,Active
2,Cn1cc(C(=O)N2CCCC2)c(OCc2cccc(C(F)(F)F)c2)n1,Active
3,CNC(=O)c1cn(C)nc1OCc1cccc(C(F)(F)F)c1,Active

# System: Schoenoplectiella juncoides
# Test: Pre-emergence herbicidal activity against Schoenoplectiella juncoides at 500 g a.i/ha measured after 14 days
# Assay type: functional, organism-based
# Settings: not given
row,SMILES,Activity
1,CCN(C(=O)c1cn(C)nc1OCc1cccc(C(F)(F)F)c1)C1CCCCC1,inactive
2,Cn1cc(C(=O)N2CCCC2)c(OCc2cccc(C(F)(F)F)c2)n1,inactive
3,CNC(=O)c1cn(C)nc1OCc1cccc(C(F)(F)F)c1,inactive

# System: Lindernia procumbens
# Test: Pre-emergence herbicidal activity against Lindernia procumbens assessed as bleaching of stem/leaf parts
# Assay type: functional, organism-based
# Settings: not given
row,SMILES,Activity
1,CCN(C(=O)c1cn(C)nc1OCc1cccc(C(F)(F)F)c1)C1CCCCC1,Active
2,Cn1cc(C(=O)N2CCCC2)c(OCc2cccc(C(F)(F)F)c2)n1,Active
3,CNC(=O)c1cn(C)nc1OCc1cccc(C(F)(F)F)c1,Active

# System: Pontederia vaginalis
# Test: Post-emergence herbicidal activity against Monochoria vaginalis assessed as bleaching of stem/leaf parts; note: test concentration or dose not given here
# Assay type: functional, organism-based
# Settings: not given
row,SMILES,Activity
1,CCN(C(=O)c1cn(C)nc1OCc1cccc(C(F)(F)F)c1)C1CCCCC1,Active
2,Cn1cc(C(=O)N2CCCC2)c(OCc2cccc(C(F)(F)F)c2)n1,Active
3,CNC(=O)c1cn(C)nc1OCc1cccc(C(F)(F)F)c1,Active

# System: Rotala indica
# Test: Pre-emergence herbicidal activity against Rotala indica assessed as bleaching of stem/leaf parts
# Assay type: functional, organism-based
# Settings: not given
row,SMILES,Activity
1,CCN(C(=O)c1cn(C)nc1OCc1cccc(C(F)(F)F)c1)C1CCCCC1,Active
2,Cn1cc(C(=O)N2CCCC2)c(OCc2cccc(C(F)(F)F)c2)n1,Active
3,CNC(=O)c1cn(C)nc1OCc1cccc(C(F)(F)F)c1,Active

# System: Elatine triandra
# Test: Pre-emergence herbicidal activity against Elatine triandra at 500 g a.i/ha measured after 14 days
# Assay type: functional, organism-based
# Settings: not given
row,SMILES,Activity
1,CCN(C(=O)c1cn(C)nc1OCc1cccc(C(F)(F)F)c1)C1CCCCC1,inactive
2,Cn1cc(C(=O)N2CCCC2)c(OCc2cccc(C(F)(F)F)c2)n1,inactive
3,CNC(=O)c1cn(C)nc1OCc1cccc(C(F)(F)F)c1,inactive

# System: Pontederia vaginalis
# Test: Pre-emergence herbicidal activity against Monochoria vaginalis at 500 g a.i/ha measured after 14 days
# Assay type: functional, organism-based
# Settings: not given
row,SMILES,Activity
1,CCN(C(=O)c1cn(C)nc1OCc1cccc(C(F)(F)F)c1)C1CCCCC1,inactive
2,Cn1cc(C(=O)N2CCCC2)c(OCc2cccc(C(F)(F)F)c2)n1,inactive
3,CNC(=O)c1cn(C)nc1OCc1cccc(C(F)(F)F)c1,inactive

# System: Echinochloa oryzicola
# Test: Pre-emergence herbicidal activity against Echinochloa oryzicola assessed as bleaching of stem/leaf parts
# Assay type: functional, organism-based
# Settings: not given
row,SMILES,Activity
1,CCN(C(=O)c1cn(C)nc1OCc1cccc(C(F)(F)F)c1)C1CCCCC1,Active
2,Cn1cc(C(=O)N2CCCC2)c(OCc2cccc(C(F)(F)F)c2)n1,Active
3,CNC(=O)c1cn(C)nc1OCc1cccc(C(F)(F)F)c1,Active

# System: Ammannia multiflora
# Test: Pre-emergence herbicidal activity against Ammannia multiflora at 500 g a.i/ha measured after 14 days
# Assay type: functional, organism-based
# Settings: not given
row,SMILES,Activity
1,CCN(C(=O)c1cn(C)nc1OCc1cccc(C(F)(F)F)c1)C1CCCCC1,inactive
2,Cn1cc(C(=O)N2CCCC2)c(OCc2cccc(C(F)(F)F)c2)n1,inactive
3,CNC(=O)c1cn(C)nc1OCc1cccc(C(F)(F)F)c1,inactive

# System: Ammannia multiflora
# Test: Pre-emergence herbicidal activity against Ammannia multiflora assessed as bleaching of stem/leaf parts
# Assay type: functional, organism-based
# Settings: not given
row,SMILES,Activity
1,CCN(C(=O)c1cn(C)nc1OCc1cccc(C(F)(F)F)c1)C1CCCCC1,Active
2,Cn1cc(C(=O)N2CCCC2)c(OCc2cccc(C(F)(F)F)c2)n1,Active
3,CNC(=O)c1cn(C)nc1OCc1cccc(C(F)(F)F)c1,Active

# System: Lindernia procumbens
# Test: Pre-emergence herbicidal activity against Lindernia procumbens at 500 g a.i/ha measured after 14 days
# Assay type: functional, organism-based
# Settings: not given
row,SMILES,Activity
1,CCN(C(=O)c1cn(C)nc1OCc1cccc(C(F)(F)F)c1)C1CCCCC1,inactive
2,Cn1cc(C(=O)N2CCCC2)c(OCc2cccc(C(F)(F)F)c2)n1,inactive
3,CNC(=O)c1cn(C)nc1OCc1cccc(C(F)(F)F)c1,inactive

# System: Schoenoplectiella juncoides
# Test: Pre-emergence herbicidal activity against Schoenoplectiella juncoides assessed as bleaching of stem/leaf parts
# Assay type: functional, organism-based
# Settings: not given
row,SMILES,Activity
1,CCN(C(=O)c1cn(C)nc1OCc1cccc(C(F)(F)F)c1)C1CCCCC1,Active
2,Cn1cc(C(=O)N2CCCC2)c(OCc2cccc(C(F)(F)F)c2)n1,Active
3,CNC(=O)c1cn(C)nc1OCc1cccc(C(F)(F)F)c1,Active

# System: Cyperus difformis
# Test: Post-emergence herbicidal activity against Cyperus difformis assessed as bleaching of stem/leaf parts; note: test concentration or dose not given here
# Assay type: functional, organism-based
# Settings: not given
row,SMILES,Activity
1,CCN(C(=O)c1cn(C)nc1OCc1cccc(C(F)(F)F)c1)C1CCCCC1,Active
2,Cn1cc(C(=O)N2CCCC2)c(OCc2cccc(C(F)(F)F)c2)n1,Active
3,CNC(=O)c1cn(C)nc1OCc1cccc(C(F)(F)F)c1,Active

# From ChEMBL document CHEMBL3046635, “Synthesis and Herbicidal Activity of New Pyrazole-4-carboxamide Derivatives” (J Pestic Sci, 2004)
